Like-named read-outs stand apart in the source and are kept apart here.
Experiments:
pAKT in BT474 cells = assay: Cell-based pAKT HTRF assay in BT474 cells; settings: BT474 cells, 4 hr incubation, read-out: pAKT inhibition IC50 in BT474 cells
In short: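 Compound titration: 3 μM downward in 3-fold steps, nine points, 4 hr on cells. Detection: lysis, then d2 plus Eu Cryptate antibody mix, room-temperature incubation of 4–24 h, and time-resolved fluorescence read at 615 nm.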

[1] = molecular target: Cys242 in human PIK3CA (157-299) (Homo sapiens (Human), UniProt P42336); assay: Covalent modification assay using MALDI-TOF MS; format: biochemical; settings: 4 h reaction time point
In short: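 PIK3CA (157-299) at 3.33 μM or 1 μM in 20 mM HEPES, 150 mM NaCl, 2 mM MgCl2, pH 7.3 was incubated with compound (from 10 mM DMSO stocks) in the dark at room temperature for 15 min, 30 min, 2 h or 4 h. Linear-mode MALDI-TOF peak heights gave percent modification.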

[2] = 3.33 μM protein target, 1:7.5 protein to compound ratio (compounds 1-852)
[3] = 1 μM protein target, 1:5 protein to compound ratio (compounds 853-1279)
[4] = Homo sapiens, BT-474, Compounds 10-999

Chain of Cys242 in human PIK3CA (157-299) (P42336 157-299): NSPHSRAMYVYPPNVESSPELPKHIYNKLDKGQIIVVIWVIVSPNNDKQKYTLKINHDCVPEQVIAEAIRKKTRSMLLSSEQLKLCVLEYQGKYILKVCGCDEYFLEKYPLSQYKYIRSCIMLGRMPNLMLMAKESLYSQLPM

Compound | IC50 (pAKT in BT474 cells; Compounds 10-999) [µM] | % of modification [1, 2] | IC50 (pAKT in BT474 cells; Compounds 1000-1279) [µM] | % of modification [1, 3] | IC50 (pAKT in BT474 cells; [4]) [µM]
C=CC(=O)N1Cc2cc(-c3nc(-c4ccc5c(c4)CNC5=O)c4ccsc4c3-c3c(F)cc(F)cc3OC[C@@H](C)O)nn2C[C@H]1C [Compound 756] | < 0.1 | A (percent of modification of PIK3CA protein ≥75%) | – | – | –
C=CC(=O)N1CC(n2cc(-c3nc(-c4cnn(CC(N)=O)c4)c4ccsc4c3-c3ccc(F)cc3OCCOC)cn2)C1 [Compound 239] | < 0.1 | A (percent of modification of PIK3CA protein ≥75%) | – | – | –
C=CC(=O)N1CCc2ccc(-c3nc(-c4ccc5c(c4)C(=O)NC5)c4ccsc4c3-c3c(F)cc(F)cc3OCCOC)cc2C1 [Compound 1107] | – | – | < 0.1 | A (percent of modification of PIK3CA protein ≥75%) | –
C=CC(=O)N1CCn2nc(-c3nc(-c4ccc5c(cnn5C)c4)c4ccsc4c3-c3c(F)cc(F)cc3OCCO)cc2[C@H]1C [Compound 908, 1-((R)-2-((S)-7-(2,4-difluoro-6-(2-hydroxyethoxy)phenyl)-4-(1-methyl-1H-indazol-5-yl)thieno[3,2-c]pyridin-6-yl)-4-methyl-6,7-dihydropyrazolo[1,5-a]pyrazin-5(4H)-yl)prop-2-en-1-one] | – | – | – | A (percent of modification of PIK3CA protein ≥75%) | < 0.1
C=CC(=O)N1CCc2ncc(-c3nc(-c4ccc5c(c4)CCN(C)C5)c4ccsc4c3-c3c(F)cc(F)cc3OC(C)C)cc2C1 [Compound 399] | < 0.1 | A (percent of modification of PIK3CA protein ≥75%) | – | – | –
C=CC(=O)N1CCn2nc(-c3nc(-c4ccc5oc(C)nc5c4)c4ccsc4c3-c3c(F)cc(F)cc3OCCO)cc2C1C (stereo not drawn) [Compound 789] | < 0.1 | A (percent of modification of PIK3CA protein ≥75%) | – | – | –
C=CC(=O)N1Cc2cc(-c3nc(-c4ccc5c(cnn5C)c4)c4ccsc4c3-c3c(F)cc(F)cc3OC[C@@H](C)O)nn2[C@@H](C)C1 [Compound 609] | < 0.1 | A (percent of modification of PIK3CA protein ≥75%) | – | – | –
C=CC(=O)N1CCn2nc(-c3nc(-c4ccnc(N)c4)c4ccsc4c3-c3ccc(F)cc3OCCO)nc2C1 [Compound 197] | < 0.1 | A (percent of modification of PIK3CA protein ≥75%) | – | – | –
C=CC(=O)N1Cc2cc(-c3nc(-c4cnc5c(c4)CNC(=O)C5)c4ccsc4c3-c3c(F)cc(F)cc3OCCOC)nn2[C@@H](C)C1 [Compound 688] | < 0.1 | A (percent of modification of PIK3CA protein ≥75%) | – | – | –
C=CC(=O)N1CCc2ncc(-c3nc(-c4cncc(F)c4)c4ccsc4c3-c3c(F)cc(F)cc3OC(C)C)cc2C1 [Compound 406] | < 0.1 | A (percent of modification of PIK3CA protein ≥75%) | – | – | –
C=CC(=O)N1CCn2nc(-c3nc(-c4cnc5c(c4)CN(C)C5=O)c4ccsc4c3-c3c(F)cc(F)cc3OCCO)cc2C1C (stereo not drawn) [Compound 924] | < 0.1 | – | – | A (percent of modification of PIK3CA protein ≥75%) | –
C=CC(=O)N1Cc2cc(-c3nc(-c4ccc5c(c4)CCN(C)C5)c4ccsc4c3-c3c(F)cc(F)cc3OCCO)nn2C[C@H]1C [Compound 512] | < 0.1 | A (percent of modification of PIK3CA protein ≥75%) | – | – | –
CC#CC(=O)N1CCn2nc(-c3nc(-c4ccc5c(cnn5C)c4)c4ccsc4c3-c3c(F)cc(F)cc3OCCOC)cc2[C@H]1C [Compound 1227] | – | – | 0.1 to 1 | B (50%<percent of modification <75%) | –
C=CC(=O)N1Cc2cc(-c3nc(-c4ccc5c(cnn5C)c4)c4ccsc4c3-c3c(F)cc(F)cc3OC[C@@H](C)O)nn2C[C@H]1C [Compound 725] | < 0.1 | A (percent of modification of PIK3CA protein ≥75%) | – | – | –
C=CC(=O)N1CCc2nc(-c3nc(-c4ccc5c(c4)CC(N)C5)c4ccsc4c3-c3ccc(F)cc3OCCOC)sc2C1 (stereo not drawn) [Compound 156] | < 0.1 | A (percent of modification of PIK3CA protein ≥75%) | – | – | –
COC/C=C/C(=O)N1CCn2nc(-c3nc(-c4ccc5c(c4)CCNC5=O)c4ccsc4c3-c3ccc(F)cc3OC(C)C)cc2C1 [Compound 277] | 0.1 to 1 | A (percent of modification of PIK3CA protein ≥75%) | – | – | –
C=CC(=O)N1Cc2cc(-c3nc(-c4ccc5c(c4)CS(=O)(=O)C5)c4ccsc4c3-c3c(F)cc(F)cc3OCCOC)nn2C[C@H]1C [Compound 746] | < 0.1 | A (percent of modification of PIK3CA protein ≥75%) | – | – | –

Compound | IC50 (pAKT in BT474 cells; Compounds 10-999) [µM] | % of modification [1, 2] | IC50 (pAKT in BT474 cells; Compounds 1000-1279) [µM] | % of modification [1, 3] | IC50 (pAKT in BT474 cells; [4]) [µM]
C=CC(=O)N1CCc2ncc(-c3nc(-c4cnc5c(c4)CN(C)CC5(F)F)c4ccsc4c3-c3c(F)cc(F)cc3OCCOC)cc2C1 [Compound 1279] | – | – | < 0.1 | A (percent of modification of PIK3CA protein ≥75%) | –
C=CC(=O)N1CCc2nc(-c3nc(-c4ccc5c(c4)CCNCC5)c4ccsc4c3-c3ccc(F)cc3OCCOC)sc2C1 [Compound 121] | < 0.1 | A (percent of modification of PIK3CA protein ≥75%) | – | – | –
C=CC(=O)N1CCn2nc(-c3nc(-c4ccc(N5CCN(C)CC5)cc4)c4ccsc4c3-c3c(F)cc(F)cc3OCCO)cc2C1C (stereo not drawn) [Compound 1089] | – | – | < 0.1 | A (percent of modification of PIK3CA protein ≥75%) | –
C=CC(=O)N1CCn2nc(-c3nc(-c4cnn(C)c4)c4ccsc4c3-c3c(F)cc(F)cc3OCCOC)cc2[C@@H]1C [Compound 649] | < 0.1 | A (percent of modification of PIK3CA protein ≥75%) | – | – | –
C=CC(=O)N1CCc2ncc(-c3nc(-c4cncc(C#N)c4)c4ccsc4c3-c3c(F)cc(F)cc3OCCOC)cc2C1 [Compound 376] | < 0.1 | A (percent of modification of PIK3CA protein ≥75%) | – | – | –
C=CC(=O)N1Cc2cc(-c3nc(-c4ccc5cn[nH]c5c4)c4ccsc4c3-c3c(F)cc(F)cc3OCCOC)nn2C[C@H]1C [Compound 690] | < 0.1 | A (percent of modification of PIK3CA protein ≥75%) | – | – | –
C=CC(=O)N1CCn2nc(-c3nc(-c4ccc5c(c4)CN(CC(F)F)CC5)c4ccsc4c3-c3c(F)cc(F)cc3OCCOC)cc2C1C (stereo not drawn) [Compound 1248] | – | – | 0.1 to 1 | A (percent of modification of PIK3CA protein ≥75%) | –
C=CC(=O)N1CCn2nc(-c3nc(-c4cncc(C#N)c4)c4ccsc4c3-c3ccc(F)cc3OCCOC)cc2C1 [Compound 202] | < 0.1 | A (percent of modification of PIK3CA protein ≥75%) | – | – | –
C=CC(=O)N1CCc2nc(-c3nc(-c4ccc5c(c4)CCNC5)c4c(c3-c3ccc(F)cc3OC)CCC4)sc2C1 [Compound 96, 1-[2-[4-(4-fluoro-2-methoxy-phenyl)-1-(1,2,3,4-tetrahydroisoquinolin-6-yl)-6,7-dihydro-5H-cyclopenta[c]pyridin-3-yl]-6,7-dihydro-4H-thiazolo[5,4-c]pyridin-5-yl]prop-2-en-1-one] | – | A (percent of modification of PIK3CA protein ≥75%) | – | – | 0.1 to 1
C=CC(=O)N1CCc2ccc(-c3nc(-c4cccc(OCCN(C)C)c4)c4ccsc4c3-c3c(F)cc(F)cc3OCCOC)cc2C1 [Compound 1184] | – | – | 0.1 to 1 | A (percent of modification of PIK3CA protein ≥75%) | –
C=CC(=O)N1CCn2nc(-c3nc(-c4ccc5c(c4)CCN(C)C5(C)C)c4ccsc4c3-c3c(F)cc(F)cc3OCCO)cc2C1C (stereo not drawn) [Compound 1181] | – | – | < 0.1 | A (percent of modification of PIK3CA protein ≥75%) | –
C=CC(=O)N1CCn2nc(-c3nc(-c4ccc5c(c4)CCNC5)c4ccsc4c3-c3ccc(F)cc3OC(F)F)cc2C1 [Compound 222] | < 0.1 | A (percent of modification of PIK3CA protein ≥75%) | – | – | –
C=CC(=O)N1Cc2cc(-c3nc(-c4cn(C)cn4)c4ccsc4c3-c3c(F)cc(F)cc3OCC(C)(C)O)nn2[C@@H](C)C1 [Compound 883] | < 0.1 | – | – | A (percent of modification of PIK3CA protein ≥75%) | –
C=CC(=O)N1CCn2nc(-c3nc(-c4ccc5c(c4)CCNC5=O)c4ccsc4c3-c3c(F)cc(F)cc3OC[C@@H](C)O)cc2[C@H]1C [Compound 894] | < 0.1 | – | – | A (percent of modification of PIK3CA protein ≥75%) | –
COCCOc1cc(F)cc(F)c1-c1c(-c2cc3n(n2)CCN(C(=O)C(F)Cl)[C@@H]3C)nc(-c2ccc3c(cnn3C)c2)c2ccsc12 (stereo partly drawn) [Compound 1228] | – | – | > 1 | D (percent of modification <25%) | –
C=CC(=O)N1CC(n2cc(-c3nc(-c4ccc(C(N)=O)cc4)c4ccsc4c3-c3ccc(F)cc3OC)cn2)C1 [Compound 172] | < 0.1 | A (percent of modification of PIK3CA protein ≥75%) | – | – | –

From patent publication US20250230138A1, “COMPOUNDS HAVING A T-STRUCTURE FORMED BY AT LEAST FOUR CYCLES FOR USE IN THE TREATMENT OF CANCER AND OTHER INDICATIONS” (TheRas, Inc., priority 2022, published 2025)
